Literature values in US7094785B1, “Method of treating polycythemia vera” (Cornell Research Foundation, Inc., priority 2002, dated 2006).
Structures can show the parent of a compound that is named as a salt.

System: essential thrombocythemia or myelofibrosis

In the case of Cc1ccc(NC(=O)c2ccc(CN3CCN(C)CC3)cc2)cc1Nc1nccc(-c2cccnc2)n1 [imatinib mesylate, N-{5-[4-(4-methyl-piperazino-methyl)-benzoylamido]-2-methylphenyl}-4-(3-pyridyl)-2-pyrimidine-amine], the “effectiveness in other myeloproliferative disorders” value is given as “not effective”.
